Test results reported in PubChem BioAssay (NCI).
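Interpolation was linear, between the two tested concentrations surrounding the appropriate level; five concentrations were tested over 48 hours in 96-well plates. At the GI50, growth is halved. TGI: concentration producing complete growth inhibition.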

Assays:
Test in all cases: NCI-60 cell line screen, 48 h
OVCAR-5 ovarian = tested on: OVCAR-5 ovarian
T-47D breast = tested on: T-47D breast
MDA-MB-435 = tested on: MDA-MB-435
RPMI-8226 leukemia = tested on: RPMI-8226 leukemia
UACC-62 melanoma = tested on: UACC-62 melanoma
A498 renal = tested on: A498 renal
M14 melanoma = tested on: M14 melanoma
HS 578T breast = tested on: HS 578T breast
NCI-H226 lung = tested on: NCI-H226 lung
UO-31 renal = tested on: UO-31 renal
K-562 leukemia = tested on: K-562 leukemia
HOP-62 NSCLC = tested on: HOP-62 NSCLC
RXF 393 renal = tested on: RXF 393 renal
SK-OV-3 ovarian = tested on: SK-OV-3 ovarian
HT29 colon = tested on: HT29 colon
HCT-15 colon = tested on: HCT-15 colon
MDA-MB-468 breast = tested on: MDA-MB-468 breast
SF-539 CNS = tested on: SF-539 CNS
CCRF-CEM leukemia = tested on: CCRF-CEM leukemia
SNB-75 CNS = tested on: SNB-75 CNS
PC-3 prostate = tested on: PC-3 prostate
OVCAR-3 ovarian = tested on: OVCAR-3 ovarian
COLO 205 colon = tested on: COLO 205 colon
SR leukemia = tested on: SR leukemia
HL-60(TB) leukemia = tested on: HL-60(TB) leukemia
NCI-H23 lung = tested on: NCI-H23 lung
SNB-19 CNS = tested on: SNB-19 CNS
KM12 colon = tested on: KM12 colon
TK-10 renal = tested on: TK-10 renal
BT-549 breast = tested on: BT-549 breast
MOLT-4 leukemia = tested on: MOLT-4 leukemia
SK-MEL-2 melanoma = tested on: SK-MEL-2 melanoma
SK-MEL-28 melanoma = tested on: SK-MEL-28 melanoma
NCI/ADR-RES ovarian = tested on: NCI/ADR-RES ovarian
A549 NSCLC = tested on: A549 NSCLC
HCC-2998 colon = tested on: HCC-2998 colon
EKVX NSCLC = tested on: EKVX NSCLC
ACHN renal = tested on: ACHN renal
MCF7 breast = tested on: MCF7 breast
SN12C renal = tested on: SN12C renal
786-0 renal = tested on: 786-0 renal
OVCAR-8 ovarian = tested on: OVCAR-8 ovarian
MDA-MB-231 breast = tested on: MDA-MB-231 breast
NCI-H522 lung = tested on: NCI-H522 lung
SF-295 CNS = tested on: SF-295 CNS
OVCAR-4 ovarian = tested on: OVCAR-4 ovarian
UACC-257 melanoma = tested on: UACC-257 melanoma
U251 CNS = tested on: U251 CNS
MALME-3M melanoma = tested on: MALME-3M melanoma
HCT-116 colon = tested on: HCT-116 colon
CAKI-1 renal = tested on: CAKI-1 renal
DU-145 prostate = tested on: DU-145 prostate
SF-268 CNS = tested on: SF-268 CNS
NCI-H460 lung = tested on: NCI-H460 lung
HOP-92 NSCLC = tested on: HOP-92 NSCLC
SK-MEL-5 melanoma = tested on: SK-MEL-5 melanoma
IGROV1 ovarian = tested on: IGROV1 ovarian

CCCCCc1ccc(S(=O)(=O)Nc2cc(-c3csc(N(C)C(C)=O)n3)ccc2N2CCN(C)CC2)cc1
GI50 (OVCAR-5 ovarian): 16.5 µM | TGI (OVCAR-5 ovarian): > 35.5 µM | GI50 (T-47D breast): 2.95 µM | TGI (T-47D breast): > 35.5 µM | GI50 (MDA-MB-435): 2.02 µM | TGI (MDA-MB-435): > 35.5 µM | GI50 (RPMI-8226 leukemia): 1.32 µM | TGI (RPMI-8226 leukemia): > 35.5 µM | GI50 (UACC-62 melanoma): 6.2 µM | TGI (UACC-62 melanoma): 12.6 µM | GI50 (A498 renal): 9.21 µM | TGI (A498 renal): > 35.5 µM | GI50 (M14 melanoma): 3.93 µM | TGI (M14 melanoma): > 35.5 µM | GI50 (HS 578T breast): 5.25 µM | TGI (HS 578T breast): 35.1 µM | GI50 (NCI-H226 lung): 8.43 µM | TGI (NCI-H226 lung): 33.2 µM | GI50 (UO-31 renal): 5.42 µM | TGI (UO-31 renal): > 35.5 µM | GI50 (K-562 leukemia): 1.01 µM | TGI (K-562 leukemia): > 35.5 µM | GI50 (HOP-62 NSCLC): 7.85 µM | TGI (HOP-62 NSCLC): > 35.5 µM | GI50 (RXF 393 renal): 2.11 µM | TGI (RXF 393 renal): 17.9 µM | GI50 (SK-OV-3 ovarian): 7.29 µM | TGI (SK-OV-3 ovarian): 17.5 µM | GI50 (HT29 colon): 1.13 µM | TGI (HT29 colon): 3.66 µM | GI50 (HCT-15 colon): 1.04 µM | TGI (HCT-15 colon): > 35.5 µM | GI50 (MDA-MB-468 breast): 1.62 µM | TGI (MDA-MB-468 breast): 7.5 µM | GI50 (SF-539 CNS): 1.21 µM | TGI (SF-539 CNS): 4.59 µM | GI50 (CCRF-CEM leukemia): 1.02 µM | TGI (CCRF-CEM leukemia): 3.71 µM | GI50 (SNB-75 CNS): 3.6 µM | TGI (SNB-75 CNS): 15 µM | GI50 (PC-3 prostate): 2.2 µM | TGI (PC-3 prostate): > 35.5 µM | GI50 (OVCAR-3 ovarian): 1.12 µM | TGI (OVCAR-3 ovarian): 12.8 µM | GI50 (COLO 205 colon): 0.626 µM | TGI (COLO 205 colon): 1.27 µM | GI50 (SR leukemia): 1.02 µM | TGI (SR leukemia): 3.6 µM | GI50 (HL-60(TB) leukemia): 0.807 µM | TGI (HL-60(TB) leukemia): 2.4 µM | GI50 (NCI-H23 lung): 7.49 µM | TGI (NCI-H23 lung): 31.7 µM | GI50 (SNB-19 CNS): 10.9 µM | TGI (SNB-19 CNS): > 35.5 µM | GI50 (KM12 colon): 3.61 µM | TGI (KM12 colon): > 35.5 µM | GI50 (TK-10 renal): 7.43 µM | TGI (TK-10 renal): 19.9 µM | GI50 (BT-549 breast): 9.72 µM | TGI (BT-549 breast): > 35.5 µM | GI50 (MOLT-4 leukemia): 1.4 µM | TGI (MOLT-4 leukemia): > 35.5 µM | GI50 (SK-MEL-2 melanoma): 8.64 µM | TGI (SK-MEL-2 melanoma): 30.2 µM | GI50 (SK-MEL-28 melanoma): 6.76 µM | TGI (SK-MEL-28 melanoma): 19.7 µM | GI50 (NCI/ADR-RES ovarian): 5.75 µM | TGI (NCI/ADR-RES ovarian): > 35.5 µM | GI50 (A549 NSCLC): 3.34 µM | TGI (A549 NSCLC): > 35.5 µM | GI50 (HCC-2998 colon): 1.25 µM | TGI (HCC-2998 colon): 8.55 µM | GI50 (EKVX NSCLC): 15.2 µM | TGI (EKVX NSCLC): > 35.5 µM | GI50 (ACHN renal): 4.66 µM | TGI (ACHN renal): > 35.5 µM | GI50 (MCF7 breast): 0.983 µM | TGI (MCF7 breast): 4.09 µM | GI50 (SN12C renal): 3.73 µM | TGI (SN12C renal): 28.1 µM | GI50 (786-0 renal): 2.29 µM | TGI (786-0 renal): 30.8 µM | GI50 (OVCAR-8 ovarian): 10.2 µM | TGI (OVCAR-8 ovarian): > 35.5 µM | GI50 (MDA-MB-231 breast): 1.81 µM | TGI (MDA-MB-231 breast): 8.34 µM | GI50 (NCI-H522 lung): 5.51 µM | TGI (NCI-H522 lung): 14.7 µM | GI50 (SF-295 CNS): 0.754 µM | TGI (SF-295 CNS): 2.12 µM | GI50 (OVCAR-4 ovarian): 2.22 µM | TGI (OVCAR-4 ovarian): 29.8 µM | GI50 (UACC-257 melanoma): 6.59 µM | TGI (UACC-257 melanoma): 26.9 µM | GI50 (U251 CNS): 7.43 µM | TGI (U251 CNS): > 35.5 µM | GI50 (MALME-3M melanoma): 5.26 µM | TGI (MALME-3M melanoma): 19.7 µM | GI50 (HCT-116 colon): 1.07 µM | TGI (HCT-116 colon): 3.67 µM | GI50 (CAKI-1 renal): 1.86 µM | TGI (CAKI-1 renal): 13.5 µM | GI50 (DU-145 prostate): 3.93 µM | TGI (DU-145 prostate): > 35.5 µM | GI50 (SF-268 CNS): 7.01 µM | TGI (SF-268 CNS): > 35.5 µM | TGI (NCI-H460 lung): 11.1 µM | GI50 (HOP-92 NSCLC): 1.71 µM | TGI (HOP-92 NSCLC): 15.4 µM | GI50 (SK-MEL-5 melanoma): 4.47 µM | TGI (SK-MEL-5 melanoma): 16.9 µM | GI50 (IGROV1 ovarian): 9.77 µM | TGI (IGROV1 ovarian): > 35.5 µM
